Assay: Test 1: maximal solubility of an active (solo) in a solvent system, visual observation
Assay type: physicochemical
Settings: active dissolved in the solvent system; limpid with the naked eye
Description: The maximal solubility of an active or a combo of actives in a solvent system is characterized by visual observation. At a given concentration, if the mixture is limpid (with the naked eye), the active ingredient(s) is (are) considered to be soluble in the solvent system at this concentration. However, if a sedimentation of the active ingredient(s) appears, it is not soluble anymore in the solvent system and the maximal solubility is reached. The maximal solubility is thus defined as the maximum amount of active ingredient(s) that can be dissolved in the solvent system, equal to the amount at which the mixture remains limpid (with the naked eye). Each active ingredient or combo is added little by little in different solvent systems. The solutions are magnetically stirred until complete dissolution. Then an additional amount of active ingredient is added and this operation is repeated until the last part of active ingredient added could not be dissolved anymore, taking care to stir the solution after each addition of active ingredient.

| SMILES | maximal solubility of Difenoconazole | maximal solubility of Picoxystrobin | maximal solubility of Pinoxaden |
| --- | --- | --- | --- |
| CCCCOC(=O)CCC(C)=O [GFbio ReSolv 200, n-butyl levulinate] | 44.5 g/100 g of solvent | 27.3 g/100 g of solvent | 11.4 g/100 g of solvent |
| COC(=O)C(C)CCC(=O)N(C)C (stereo not drawn) [Rhodiasolv ® Polarclean, methyl-5-(dimethylamino)-2-methyl-5-oxopentanoate] | 65.5 g/100 g of solvent | 43.9 g/100 g of solvent | 13.0 g/100 g of solvent |

Source: patent publication US20260256135A1, “SOLVENT COMPOSITION FOR AGROCHEMICAL FORMULATIONS” (SPECIALTY OPERATIONS FRANCE, priority 2023, published 2026)
